This passage reports IC50 results from patent US8642594B2, “Substituted thieno[2,3-d]pyrimidines as HSP90 inhibitors” (Vernalis (R&D) Limited, priority 2003, dated 2014).

pIC50: −log10 of the molar value. Some results are limits rather than exact numbers.

T1 sequence (P08238 whole entry): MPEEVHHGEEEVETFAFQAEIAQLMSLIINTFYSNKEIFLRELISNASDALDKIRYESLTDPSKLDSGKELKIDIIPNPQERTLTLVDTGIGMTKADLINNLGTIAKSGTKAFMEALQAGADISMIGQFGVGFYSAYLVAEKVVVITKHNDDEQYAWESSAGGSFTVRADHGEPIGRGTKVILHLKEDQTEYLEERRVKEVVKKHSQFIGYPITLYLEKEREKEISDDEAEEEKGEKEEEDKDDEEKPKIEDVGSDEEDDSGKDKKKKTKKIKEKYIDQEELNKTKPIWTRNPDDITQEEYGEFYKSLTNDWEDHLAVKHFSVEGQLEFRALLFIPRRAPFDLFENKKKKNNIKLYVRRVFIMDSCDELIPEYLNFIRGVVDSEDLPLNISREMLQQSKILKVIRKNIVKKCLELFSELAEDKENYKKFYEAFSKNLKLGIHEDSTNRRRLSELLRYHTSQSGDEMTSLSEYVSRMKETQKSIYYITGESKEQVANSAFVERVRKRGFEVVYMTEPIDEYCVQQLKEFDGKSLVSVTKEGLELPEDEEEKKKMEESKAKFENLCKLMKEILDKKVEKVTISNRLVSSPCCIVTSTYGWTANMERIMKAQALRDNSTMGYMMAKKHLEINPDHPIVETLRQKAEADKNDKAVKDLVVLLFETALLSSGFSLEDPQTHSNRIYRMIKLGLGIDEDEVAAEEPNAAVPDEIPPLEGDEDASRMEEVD

One experiment addresses T1, Human full-length Hsp90 (Homo sapiens, UniProt P08238).
T1 construct: E. coli expressed human full-length HSP90 protein, purified >95%; made in house; host or cells: E. coli
Nature of the experiment: Fluorescence polarization assay (competitive binding to HSP90, probe RBT0045864-FAM).
Settings: not given
The protocol: Fluorescence Polarization Assay
Fluorescence polarization {also known as fluorescence anisotropy} measures the rotation of a fluorescing species in solution, where the larger molecule the more polarized the fluorescence emission. When the fluorophore is excited with polarized light, the emitted light is also polarized. The molecular size is proportional to the polarization of the fluorescence emission.
The fluoroscein-labelled probe—RBT0045864-FAM—
Test compound is added to the assay plate, left to equilibrate and the anisotropy measured again. Any change in anisotropy is due to competitive binding of compound to HSP90, thereby releasing probe.
Stored at room temperature. • 3) BSA (bovine serum albumen) 10 mg/ml (New England Biolabs #B9001S) • 4) 20 mM probe in 100% DMSO stock concentration. Stored in the dark at RT. Working concentration is 200 nM diluted in AR water and stored at 4° C. […] Protocol • 1) Add 100 μl 1× buffer to wells 11A and 12A (=FP BLNK) • 2) Prepare assay mix—all reagents are kept on ice with a lid on the bucket as the probe is light-sensitive.
This gives 2.5 mM {50×} stock cpd—assuming cpds 20 mM. • 4) Repeat for wells A2 to A10. Control in columns 11 and 12. • 5) Transfer 5 μl from row A to row B—not column 12. Mix well. • 6) Transfer 5 μl from row B to row C. […] Add 2 μl of 100 mM standard cpd to wells B12-H12 {is positive control} • 13) The Z′ factor is calculated from zero controls and positive wells.
On the technique in general: In fluorescence polarisation assays a small probe gives low polarisation when free and higher when bound to something large.
With `CCNC(=O)c1cc2c(-c3ccc(C)cc3C)nc(N)nc2s1` [Example 80], the negative logarithm of the IC50 (pIC50) is over 5.00.

With `CCNC(=O)c1cc2c(-c3ccc(C#N)cc3C)nc(N)nc2s1` [Example 84], the pIC50 is over 5.00.

As for `CCNC(=O)c1cc2c(-c3ccc(Cl)cc3Cl)nc(N)nc2s1` [Example 98], the negative logarithm of the IC50 (pIC50) was over 5.00.

The same experiment, now with this note: fluorescence polarization assay, activity range; read-out: Hsp90 FP IC50.
`CCOC(=O)c1cc2c(-c3ccc(OCC)cc3Cl)nc(N)nc2s1` [Example 78]: the negative-log IC50 (pIC50) is over 5.00.

In the case of `CCOC(=O)c1cc2c(-c3ccc(C)cc3Cl)nc(N)nc2s1` [Example 79], the negative-log IC50 (pIC50) is over 5.00.

For `Cc1ccc(-c2nc(N)nc3sc(C(=O)NC(C)C)cc23)c(C)c1` [Example 81], the pIC50 is over 5.00.

Take `Cc1ccc(-c2nc(N)nc3sc(C(=O)NCCO)cc23)c(C)c1` [Example 82]: the negative-log IC50 (pIC50) is over 5.00.

In the case of `Cc1ccc(-c2nc(N)nc3sc(C(=O)NCCCN(C)C)cc23)c(C)c1` [Example 83], the pIC50 was over 5.00.

Consider `Cc1ccc(-c2nc(N)nc3sc(C(=O)NCCCO)cc23)c(C)c1` [Example 85], for which the pIC50 is over 5.00.

On to `Cc1ccc(-c2nc(N)nc3sc(C(=O)NCCc4c[nH]cn4)cc23)c(C)c1` [Example 86], for which the negative logarithm of the IC50 (pIC50) is over 5.00.

Take `CCOC(=O)c1cc2c(-c3cccc(C)c3C)nc(N)nc2s1` [Example 87]: the negative-log IC50 (pIC50) was over 5.00.

On to `CCOC(=O)c1cc2c(-c3cc(C)ccc3C)nc(N)nc2s1` [Example 88], for which the pIC50 was over 5.00.

Turning to `CCOC(=O)c1cc2c(-c3ccc(Cl)cc3Cl)nc(N)nc2s1` [Example 89], the negative logarithm of the IC50 (pIC50) is over 5.00.

Take `CCOC(=O)c1cc2c(-c3ccc(OCc4ccccc4)cc3C)nc(N)nc2s1` [Example 90]: the pIC50 was under 5.00.

With `Cc1ccc(-c2nc(N)nc3sc(C(=O)Nc4ccccc4)cc23)c(C)c1` [Example 91], the pIC50 was over 5.00.

As for `Cc1ccc(-c2nc(N)nc3sc(C(=O)NCc4ccccc4)cc23)c(C)c1` [Example 92], the negative-log IC50 (pIC50) is over 5.00.

Take `CCCN(C)C(=O)c1cc2c(-c3ccc(C)cc3C)nc(N)nc2s1` [Example 93]: the negative logarithm of the IC50 (pIC50) was under 5.00.

`CCOC(=O)c1cc2c(-c3cccnc3)nc(N)nc2s1` [Example 94]: the pIC50 is under 5.00.

For the molecule `Cc1ccc(-c2nc(N)nc3sc(C(=O)NCC(N)=O)cc23)c(C)c1` [Example 95], the negative logarithm of the IC50 (pIC50) is over 5.00.

`Cc1ccc(-c2nc(N)nc3sc(C(=O)N4CCOCC4)cc23)c(C)c1` [Example 96]: the negative logarithm of the IC50 (pIC50) was under 5.00.

Take `CCOC(=O)c1cc2c(-c3ccccc3Br)nc(N)nc2s1` [Example 97]: the pIC50 is over 5.00.

Turning to `CCOC(=O)c1sc2nc(N)nc(-c3ccccc3)c2c1Br` [Example 99], the pIC50 is under 5.00.

Take `CCOC(=O)c1cc2c(-c3cccc4cccnc34)nc(N)nc2s1` [Example 100]: the negative logarithm of the IC50 (pIC50) is under 5.00.

In the case of `Nc1nc(-c2ccc(Cl)cc2Cl)c2cc(C(=O)NCCCO)sc2n1` [Example 101], the pIC50 was over 5.00.

Take `CN(C)CCCNC(=O)c1cc2c(-c3ccc(Cl)cc3Cl)nc(N)nc2s1` [Example 102]: the pIC50 is over 5.00.

`CCOC(=O)c1cc2c(-c3ccccn3)nc(N)nc2s1` [Example 104]: the negative logarithm of the IC50 (pIC50) was under 5.00.

Turning to `CCOC(=O)c1cc2c(-c3cc(C)c(Br)cc3C)nc(N)nc2s1` [Example 105], the pIC50 is over 5.00.

For `CCOC(=O)c1cc2c(-c3cc(Cl)ccc3Cl)nc(N)nc2s1` [Example 106], the negative logarithm of the IC50 (pIC50) is under 5.00.

Take `Nc1nc(-c2ccc(Cl)cc2Cl)c2cc(C(=O)Nc3ccccc3)sc2n1` [Example 107]: the negative-log IC50 (pIC50) is over 5.00.

Regarding `Nc1nc(-c2ccc(Cl)cc2Cl)c2cc(C(=O)Nc3ccc(S(N)(=O)=O)cc3)sc2n1` [Example 108], the pIC50 was over 5.00.

For `Nc1nc(-c2ccc(Cl)cc2Cl)c2cc(C(=O)Nc3cccc(Cl)c3)sc2n1` [Example 109], the pIC50 is over 5.00.

For the molecule `NC(=O)c1ccc(NC(=O)c2cc3c(-c4ccc(Cl)cc4Cl)nc(N)nc3s2)cc1` [Example 110], the pIC50 was over 5.00.

With `Nc1nc(-c2ccc(Cl)cc2Cl)c2cc(C(=O)Nc3ccc(Cl)cc3)sc2n1` [Example 111], the pIC50 was over 5.00.

`Nc1nc(-c2ccc(Cl)cc2Cl)c2cc(C(=O)Nc3ccc(S(=O)(=O)O)cc3)sc2n1` [Example 112]: the negative logarithm of the IC50 (pIC50) was over 5.00.

For `COc1ccc(NC(=O)c2cc3c(-c4ccc(Cl)cc4Cl)nc(N)nc3s2)cc1` [Example 113], the negative-log IC50 (pIC50) is over 5.00.

For `CCOC(=O)c1cc2c(-c3ccc(C)cn3)nc(N)nc2s1` [Example 114], the pIC50 is over 5.00.

As to `CCOC(=O)c1cc2c(-c3ncccc3C)nc(N)nc2s1` [Example 115], the negative-log IC50 (pIC50) is over 5.00.

With `Nc1nc(-c2ccc(Cl)cc2Cl)c2cc(C(=O)NCc3ccc(S(N)(=O)=O)cc3)sc2n1` [Example 116], the pIC50 is over 5.00.

As to `CS(=O)(=O)c1ccc(CNC(=O)c2cc3c(-c4ccc(Cl)cc4Cl)nc(N)nc3s2)cc1` [Example 117], the negative logarithm of the IC50 (pIC50) is over 5.00.

With `COc1ccc(CNC(=O)c2cc3c(-c4ccc(Cl)cc4Cl)nc(N)nc3s2)cc1` [Example 118], the pIC50 is over 5.00.

`Nc1nc(-c2ccc(Cl)cc2Cl)c2cc(C(=O)NCc3ccc4c(c3)OCO4)sc2n1` [Example 119]: the negative logarithm of the IC50 (pIC50) is over 5.00.

As for `Nc1nc(-c2ccc(Cl)cc2Cl)c2cc(C(=O)NCc3ccc(F)cc3)sc2n1` [Example 120], the negative logarithm of the IC50 (pIC50) is over 5.00.

With `Nc1nc(-c2ccc(Cl)cc2Cl)c2cc(C(=O)NCc3ccc(Cl)cc3)sc2n1` [Example 121], the negative logarithm of the IC50 (pIC50) is over 5.00.

Consider `Nc1nc(-c2ccc(Cl)cc2Cl)c2cc(C(=O)NCc3cccc(C(F)(F)F)c3)sc2n1` [Example 122], for which the pIC50 is over 5.00.

Turning to `Nc1nc(-c2ccc(Cl)cc2Cl)c2cc(C(=O)NCc3cccnc3)sc2n1` [Example 123], the negative-log IC50 (pIC50) is over 5.00.

With `Nc1nc(-c2ccc(Cl)cc2Cl)c2cc(C(=O)NCc3cccs3)sc2n1` [Example 124], the negative-log IC50 (pIC50) is over 5.00.

With `Nc1nc(-c2ccc(Cl)cc2Cl)c2cc(C(=O)NCc3ccco3)sc2n1` [Example 125], the pIC50 is over 5.00.

`COCCCNC(=O)c1cc2c(-c3ccc(Cl)cc3Cl)nc(N)nc2s1` [Example 126]: the negative-log IC50 (pIC50) was over 5.00.

As for `Nc1nc(-c2ccc(Cl)cc2Cl)c2cc(C(=O)NC(CO)CO)sc2n1` [Example 127], the pIC50 was over 5.00.

Consider `Nc1nc(-c2ccc(Cl)cc2Cl)c2cc(C(=O)NCC(O)CO)sc2n1` (centres unmarked) [Example 128], for which the pIC50 was over 5.00.

As for `CCN1CCCC1CNC(=O)c1cc2c(-c3ccc(Cl)cc3Cl)nc(N)nc2s1` (centres unmarked) [Example 129], the pIC50 was over 5.00.

As for `Nc1nc(-c2ccc(Cl)cc2Cl)c2cc(C(=O)NCCS(N)(=O)=O)sc2n1` [Example 130], the negative logarithm of the IC50 (pIC50) is over 5.00.

On to `NC(=O)CCNC(=O)c1cc2c(-c3ccc(Cl)cc3Cl)nc(N)nc2s1` [Example 131], for which the negative-log IC50 (pIC50) is over 5.00.

`Nc1nc(-c2ccc(Cl)cc2Cl)c2cc(C(=O)NCC3CCCO3)sc2n1` (centres unmarked) [Example 132]: the pIC50 was over 5.00.

With `CC(C)NC(=O)c1cc2c(-c3ccc(Cl)cc3Cl)nc(N)nc2s1` [Example 133], the pIC50 was over 5.00.

On to `Nc1nc(-c2ccc(Cl)cc2Cl)c2cc(C(=O)NCC(F)(F)F)sc2n1` [Example 134], for which the pIC50 is over 5.00.

As for `Nc1nc(-c2ccc(Cl)cc2Cl)c2cc(C(=O)Nc3ccc(F)cc3)sc2n1` [Example 135], the pIC50 was over 5.00.

Take `Nc1nc(-c2ccc(Cl)cc2Cl)c2cc(C(=O)NCCO)sc2n1` [Example 136]: the negative logarithm of the IC50 (pIC50) is over 5.00.

In the case of `CN1CCC(NC(=O)c2cc3c(-c4ccc(Cl)cc4Cl)nc(N)nc3s2)CC1` [Example 137], the pIC50 is over 5.00.

On to `C[C@@H](NC(=O)c1cc2c(-c3ccc(Cl)cc3Cl)nc(N)nc2s1)c1ccccc1` [Example 138], for which the negative logarithm of the IC50 (pIC50) was over 5.00.

As for `C[C@H](NC(=O)c1cc2c(-c3ccc(Cl)cc3Cl)nc(N)nc2s1)c1ccccc1` [Example 139], the pIC50 was over 5.00.

For the molecule `CC(C)(NC(=O)c1cc2c(-c3ccc(Cl)cc3Cl)nc(N)nc2s1)c1ccccc1` [Example 140], the negative logarithm of the IC50 (pIC50) is over 5.00.

In the case of `Nc1nc(-c2ccc(Cl)cc2Cl)c2cc(C(=O)NCc3ccncc3)sc2n1` [Example 141], the pIC50 is over 5.00.

Regarding `Nc1nc(-c2ccc(Cl)cc2Cl)c2cc(C(=O)Nc3nccs3)sc2n1` [Example 142], the pIC50 is over 5.00.

`Nc1nc(-c2ccc(Cl)cc2Cl)c2cc(C(=O)Nc3cc[nH]n3)sc2n1` [Example 143]: the negative-log IC50 (pIC50) is over 5.00.

As for `Nc1nc(-c2ccc(Cl)cc2Cl)c2cc(C(=O)NCCCS(=O)(=O)O)sc2n1` [Example 144], the pIC50 was over 5.00.

Take `Nc1nc(-c2ccc(Cl)cc2Cl)c2cc(C(=O)NCCCN3CCCC3)sc2n1` [Example 145]: the pIC50 was over 5.00.

As for `Nc1nc(-c2ccc(Cl)cc2Cl)c2cc(C(=O)NCCCn3ccnc3)sc2n1` [Example 146], the pIC50 was over 5.00.

For the molecule `CCOC(=O)c1cc2c(-c3c(Cl)cccc3OC)nc(N)nc2s1` [Example 147], the pIC50 is under 5.00.

Take `CCOC(=O)c1cc2c(-c3ccc(C#N)cc3Cl)nc(N)nc2s1` [Example 148]: the pIC50 is over 5.00.

In the case of `CCNC(=O)c1cc2c(-c3cc(C)c(Br)cc3C)nc(N)nc2s1` [Example 149], the pIC50 is over 5.00.

By pIC50 is commonly meant the IC50 on a negative log10 scale, so that one unit is a factor of ten.
